Test results as given in PMC10824666 (Nature Cancer, 2023).
Read-outs that look alike come from different tables or passages of the source. Values belong to the molecule of their own block, whether it stands above or below them.

Assays:
Test in all cases: biochemical
Set-up in all cases: Eurofins DiscoverX kinase panel, competitive binding assay at 1 uM, percent of DMSO control
Settings in all cases: competitive binding, percent of DMSO control
[1] = target: T1, p38 α (Homo sapiens, UniProt Q16539)
T1 construct: gene MAPK14
Experimental: (§1) Extended Data Fig. 3 In vitro characterization of potent and selective KIF18A inhibitors. a, KIF18A compounds (1 µM) were assessed across a panel of kinases (n = 96) by a competitive binding assay. Graph presented as percentage of control (POC); dashed line indicates POC value of 30 (n = 1 experiment). b, Tubulin polymerization analysis. Profile of KIF18A compounds (10 µM) relative to DMSO, paclitaxel (5 µM, tubulin stabilizer), or nocodazole (5 µM, tubulin destabilizer). Graphs presented as tubulin fluorescence signal at 440 nm expressed as arbitrary units (a.u.) versus time (min) with area-under-the-curve (AUC) values (n = 1 or 3 independent experiments). c, Mitotic spindle image analysis. […] Representative images were captured with x40 objective (scale bar = 10 µm) (n = 1 experiment). d-f, KIF18A compound effects on HeLa cells. d, Cells were treated for 96 h with DMSO or KIF18A compounds at the indicated concentrations. KIF18A compound concentration-response profiles presented as count relative to the percentage of DMSO control (POC) with count EC50 values (n = 2 independent experiments in duplicate). e, KIF18A protein localization in cells after treatment for 6 hours with DMSO or AM-1882 (0.05 µM). Cells stained to detect DNA, KIF18A, and centrin-3. Representative images of mitotic cells (n = 3 per group) were captured with x60 objective (scale bar = 5 µm) and graphs of line scan measurements were obtained for DNA, KIF18A, and centrin-3 channels expressed as fluorescence intensity (a.u.) versus distance (µm) (n = 1 experiment). f, Mitotic cell fate imaging analysis. HeLa Kyoto cells co-expressing α-tubulin-EGFP and H2B-mCherry proteins released from a G1S block in media containing DMSO or AM-1882 (0.2 µM). Analysis was performed on cells entering the first mitosis (n = 40 cells per group). Graph presented as time in mitosis (h) versus mitotic cell fate, either complete cell division (CCD) or death in mitosis (DiM). Classified cells exiting mitosis by the number of daughter cells and cell death in […] We screened a small-molecule library of diverse compounds for selective inhibitors of KIF18A MT-ATPase motor activity. Two compound hits were discovered that phenocopied the effects of KIF18A KD in cells; these hits are structurally distinct from the KIF18A inhibitor BTB-1 (refs. [27],[28]). […] However, the potency of the KIF18A inhibitors was unaffected by varying ATP and MT concentrations (Extended Data Fig. 2d). This supports our proposed model in which KIF18A inhibitors occupy an allosteric pocket formed by motor helices α4 and α6 close to the motor MT-binding surface. To screen for potential off-target interactions with essential mitotic kinases, three of the KIF18A compounds were profiled against a large panel of kinases. […] We next investigated whether our KIF18A inhibitors affected tubulin polymerization in vitro in the absence of the KIF18A motor. All four KIF18A compounds had tubulin-polymerization profiles similar to that of the DMSO control and distinct from those of the paclitaxel (MT stabilizer) and nocodazole (MT destabilizer) co

[2] = target: T2, MSK1 (Homo sapiens, UniProt O75582)
T2 construct: gene RPS6KA5
T2 sequence (O75582 whole entry): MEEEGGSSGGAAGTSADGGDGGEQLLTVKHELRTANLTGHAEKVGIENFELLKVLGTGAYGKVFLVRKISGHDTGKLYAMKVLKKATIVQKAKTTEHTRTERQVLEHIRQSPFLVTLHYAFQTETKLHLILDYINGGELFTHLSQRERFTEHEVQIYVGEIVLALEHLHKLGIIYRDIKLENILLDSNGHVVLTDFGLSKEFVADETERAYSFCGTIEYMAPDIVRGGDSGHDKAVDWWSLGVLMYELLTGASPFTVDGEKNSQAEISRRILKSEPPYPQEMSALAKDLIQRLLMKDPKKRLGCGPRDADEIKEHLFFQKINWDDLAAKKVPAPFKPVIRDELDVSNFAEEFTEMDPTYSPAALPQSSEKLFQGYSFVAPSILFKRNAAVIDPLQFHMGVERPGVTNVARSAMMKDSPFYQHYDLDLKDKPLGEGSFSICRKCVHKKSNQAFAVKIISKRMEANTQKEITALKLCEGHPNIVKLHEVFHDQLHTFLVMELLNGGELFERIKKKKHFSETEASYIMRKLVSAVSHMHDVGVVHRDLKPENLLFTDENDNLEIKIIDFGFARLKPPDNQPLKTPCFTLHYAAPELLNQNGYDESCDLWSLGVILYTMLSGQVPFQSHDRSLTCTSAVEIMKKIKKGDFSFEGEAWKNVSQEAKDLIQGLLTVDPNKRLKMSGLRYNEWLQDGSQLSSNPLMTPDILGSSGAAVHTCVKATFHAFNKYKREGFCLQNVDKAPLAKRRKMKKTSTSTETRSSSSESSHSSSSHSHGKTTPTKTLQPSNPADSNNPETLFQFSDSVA
Experimental: as §1

[3] = target: CAMK2D (Homo sapiens, UniProt Q13557)
Experimental: as §1

[4] = target: T3, IGF-1R (Homo sapiens, UniProt P08069)
T3 construct: gene IGF1R
T3 sequence (P08069 whole entry): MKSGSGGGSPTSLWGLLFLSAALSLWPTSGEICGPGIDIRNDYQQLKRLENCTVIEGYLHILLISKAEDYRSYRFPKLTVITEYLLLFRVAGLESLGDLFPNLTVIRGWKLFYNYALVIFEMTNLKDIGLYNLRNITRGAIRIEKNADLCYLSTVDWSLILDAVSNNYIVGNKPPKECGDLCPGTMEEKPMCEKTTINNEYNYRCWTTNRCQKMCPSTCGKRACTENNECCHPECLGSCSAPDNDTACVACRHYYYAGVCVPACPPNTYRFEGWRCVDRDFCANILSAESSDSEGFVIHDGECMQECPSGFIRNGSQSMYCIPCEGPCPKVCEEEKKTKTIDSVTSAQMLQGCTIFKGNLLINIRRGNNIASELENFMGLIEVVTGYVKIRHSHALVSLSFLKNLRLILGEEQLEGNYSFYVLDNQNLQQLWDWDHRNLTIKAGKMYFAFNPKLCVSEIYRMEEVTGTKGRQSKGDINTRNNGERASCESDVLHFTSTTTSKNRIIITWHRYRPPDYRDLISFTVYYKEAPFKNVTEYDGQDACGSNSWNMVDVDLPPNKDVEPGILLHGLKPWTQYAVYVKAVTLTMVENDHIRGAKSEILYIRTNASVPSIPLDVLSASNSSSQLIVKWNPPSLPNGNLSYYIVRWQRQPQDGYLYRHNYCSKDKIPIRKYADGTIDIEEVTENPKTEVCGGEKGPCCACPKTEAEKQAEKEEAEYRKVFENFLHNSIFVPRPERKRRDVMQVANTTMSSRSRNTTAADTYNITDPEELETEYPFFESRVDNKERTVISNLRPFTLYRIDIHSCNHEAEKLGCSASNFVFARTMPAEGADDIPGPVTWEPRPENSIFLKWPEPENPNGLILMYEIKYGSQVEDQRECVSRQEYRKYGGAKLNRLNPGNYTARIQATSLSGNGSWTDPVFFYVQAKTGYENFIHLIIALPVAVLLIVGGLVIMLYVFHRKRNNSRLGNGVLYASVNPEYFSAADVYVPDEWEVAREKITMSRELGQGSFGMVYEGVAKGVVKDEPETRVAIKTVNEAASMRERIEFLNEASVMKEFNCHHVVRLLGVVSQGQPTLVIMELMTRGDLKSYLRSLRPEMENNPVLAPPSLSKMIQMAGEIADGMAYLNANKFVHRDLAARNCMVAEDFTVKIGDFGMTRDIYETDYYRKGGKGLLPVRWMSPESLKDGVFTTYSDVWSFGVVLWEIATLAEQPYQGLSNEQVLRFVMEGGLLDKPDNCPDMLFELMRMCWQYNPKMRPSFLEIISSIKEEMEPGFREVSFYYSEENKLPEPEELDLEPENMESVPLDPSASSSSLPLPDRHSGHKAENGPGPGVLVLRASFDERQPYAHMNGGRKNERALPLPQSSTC
Experimental: as §1

[5] = target: MAP4K4 (Homo sapiens, UniProt O95819)
Sequence of MAP4K4 (O95819 whole entry): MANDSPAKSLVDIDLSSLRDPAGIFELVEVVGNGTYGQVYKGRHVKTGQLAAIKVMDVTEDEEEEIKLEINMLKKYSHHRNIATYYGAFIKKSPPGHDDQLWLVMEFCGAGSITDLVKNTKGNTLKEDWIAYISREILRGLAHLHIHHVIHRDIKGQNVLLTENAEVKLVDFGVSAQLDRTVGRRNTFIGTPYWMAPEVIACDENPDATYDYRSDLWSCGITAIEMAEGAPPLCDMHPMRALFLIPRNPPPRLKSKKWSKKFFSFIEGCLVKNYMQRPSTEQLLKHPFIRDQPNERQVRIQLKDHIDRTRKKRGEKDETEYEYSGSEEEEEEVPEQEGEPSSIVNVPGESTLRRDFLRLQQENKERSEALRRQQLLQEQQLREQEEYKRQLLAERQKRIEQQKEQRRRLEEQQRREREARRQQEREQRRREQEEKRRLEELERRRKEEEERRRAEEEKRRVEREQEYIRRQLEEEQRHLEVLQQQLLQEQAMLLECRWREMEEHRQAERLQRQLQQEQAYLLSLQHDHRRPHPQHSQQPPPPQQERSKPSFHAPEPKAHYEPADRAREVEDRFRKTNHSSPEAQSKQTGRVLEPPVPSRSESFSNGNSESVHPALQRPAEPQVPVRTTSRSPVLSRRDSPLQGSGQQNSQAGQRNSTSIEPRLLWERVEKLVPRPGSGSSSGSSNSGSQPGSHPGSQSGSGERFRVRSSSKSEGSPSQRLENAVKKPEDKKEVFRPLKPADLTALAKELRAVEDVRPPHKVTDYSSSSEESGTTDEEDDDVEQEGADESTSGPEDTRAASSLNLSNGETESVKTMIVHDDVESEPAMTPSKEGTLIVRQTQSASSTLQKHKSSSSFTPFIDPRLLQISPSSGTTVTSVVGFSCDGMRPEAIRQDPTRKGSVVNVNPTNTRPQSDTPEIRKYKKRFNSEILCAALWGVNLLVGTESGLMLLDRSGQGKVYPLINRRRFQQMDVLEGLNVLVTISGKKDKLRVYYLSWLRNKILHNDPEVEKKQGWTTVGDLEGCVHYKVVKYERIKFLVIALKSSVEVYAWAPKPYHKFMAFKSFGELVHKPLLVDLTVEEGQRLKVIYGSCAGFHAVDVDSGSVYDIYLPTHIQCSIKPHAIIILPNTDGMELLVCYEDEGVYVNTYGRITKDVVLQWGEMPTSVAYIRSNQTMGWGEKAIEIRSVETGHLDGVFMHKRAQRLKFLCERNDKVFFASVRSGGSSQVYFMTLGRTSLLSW
Experimental: as §1

[6] = target: T4, PRKG1 (Homo sapiens, UniProt Q13976)
T4 sequence (Q13976 1-671): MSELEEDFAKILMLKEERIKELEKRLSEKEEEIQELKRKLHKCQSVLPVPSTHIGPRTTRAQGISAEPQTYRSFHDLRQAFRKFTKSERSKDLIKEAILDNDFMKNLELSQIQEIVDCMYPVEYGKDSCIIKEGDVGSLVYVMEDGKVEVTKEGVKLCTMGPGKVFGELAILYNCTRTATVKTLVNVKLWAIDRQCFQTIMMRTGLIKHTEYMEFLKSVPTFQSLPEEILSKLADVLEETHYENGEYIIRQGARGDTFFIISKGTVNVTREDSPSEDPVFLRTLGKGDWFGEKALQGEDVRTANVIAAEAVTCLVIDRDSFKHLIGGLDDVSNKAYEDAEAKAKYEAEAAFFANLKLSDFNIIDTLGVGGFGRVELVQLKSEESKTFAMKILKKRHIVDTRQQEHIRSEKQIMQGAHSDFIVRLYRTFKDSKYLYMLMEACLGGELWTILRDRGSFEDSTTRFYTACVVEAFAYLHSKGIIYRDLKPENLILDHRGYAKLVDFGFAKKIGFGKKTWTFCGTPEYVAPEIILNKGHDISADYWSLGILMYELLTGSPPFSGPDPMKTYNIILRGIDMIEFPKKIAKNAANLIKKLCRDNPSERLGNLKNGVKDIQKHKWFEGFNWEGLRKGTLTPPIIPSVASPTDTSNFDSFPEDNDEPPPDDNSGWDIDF
Experimental: as §1

[7] = target: c-MET (Homo sapiens, UniProt P08581)
Sequence of c-MET (P08581 whole entry): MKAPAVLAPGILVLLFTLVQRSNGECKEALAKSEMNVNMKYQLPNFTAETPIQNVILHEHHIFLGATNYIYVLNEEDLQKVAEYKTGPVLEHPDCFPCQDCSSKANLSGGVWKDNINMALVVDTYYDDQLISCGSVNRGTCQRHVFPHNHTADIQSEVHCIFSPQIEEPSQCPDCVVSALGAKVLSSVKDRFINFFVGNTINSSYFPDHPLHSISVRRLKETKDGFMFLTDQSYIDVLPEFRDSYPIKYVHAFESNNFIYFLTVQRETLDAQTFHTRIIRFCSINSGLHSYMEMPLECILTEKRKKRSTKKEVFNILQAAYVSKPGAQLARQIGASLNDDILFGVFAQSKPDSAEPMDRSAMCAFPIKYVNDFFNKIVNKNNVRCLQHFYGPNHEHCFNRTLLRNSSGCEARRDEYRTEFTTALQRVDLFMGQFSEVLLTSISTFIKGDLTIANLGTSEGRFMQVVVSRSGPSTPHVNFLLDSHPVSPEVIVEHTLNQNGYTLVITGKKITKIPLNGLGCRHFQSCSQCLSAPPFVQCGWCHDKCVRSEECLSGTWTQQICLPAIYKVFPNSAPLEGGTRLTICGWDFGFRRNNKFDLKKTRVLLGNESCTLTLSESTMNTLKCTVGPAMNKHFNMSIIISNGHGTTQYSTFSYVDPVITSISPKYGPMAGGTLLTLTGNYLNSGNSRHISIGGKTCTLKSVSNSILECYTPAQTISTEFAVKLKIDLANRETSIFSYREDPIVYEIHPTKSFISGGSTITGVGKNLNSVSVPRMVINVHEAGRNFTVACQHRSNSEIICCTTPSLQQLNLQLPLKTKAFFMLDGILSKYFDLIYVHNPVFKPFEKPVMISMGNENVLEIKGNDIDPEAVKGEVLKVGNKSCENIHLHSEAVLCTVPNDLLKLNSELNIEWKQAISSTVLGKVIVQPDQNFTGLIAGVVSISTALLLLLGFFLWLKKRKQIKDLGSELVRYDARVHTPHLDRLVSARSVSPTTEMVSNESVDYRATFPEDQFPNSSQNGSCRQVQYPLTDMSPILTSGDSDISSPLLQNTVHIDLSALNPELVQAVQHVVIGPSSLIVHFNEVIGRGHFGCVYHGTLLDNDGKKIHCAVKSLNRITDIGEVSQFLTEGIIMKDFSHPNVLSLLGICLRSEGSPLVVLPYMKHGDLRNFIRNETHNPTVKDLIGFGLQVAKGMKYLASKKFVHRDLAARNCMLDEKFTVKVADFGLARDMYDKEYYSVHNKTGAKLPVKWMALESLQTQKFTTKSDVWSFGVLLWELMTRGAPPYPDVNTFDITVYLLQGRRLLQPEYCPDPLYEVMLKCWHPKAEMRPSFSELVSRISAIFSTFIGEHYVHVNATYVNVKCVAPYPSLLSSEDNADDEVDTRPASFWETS
Experimental: as §1

[8] = target: NEK4 (Homo sapiens, UniProt P51957)
Experimental: as §1

[9] = read-out: Kinome Profiling performed by Eurofins DiscoverX / AM-0277, 1.0 µM / POC
[10] = read-out: Kinome Profiling performed by Eurofins DiscoverX / AM-1882, 1.0 µM / POC
[11] = read-out: Kinome Profiling performed by Eurofins DiscoverX / AM-5308, 1.0 µM / POC

remaining activity at 1 µM [1, 9]: 100%
remaining activity at 1 µM [2, 9]: 94%
remaining activity at 1 µM [3, 9]: 91%
remaining activity at 1 µM [4, 9]: 97%
remaining activity at 1 µM [5, 9]: 100%
remaining activity at 1 µM [6, 9]: 87%
remaining activity at 1 µM [7, 9]: 89%
remaining activity at 1 µM [8, 9]: 100%
Compound: CC(C)(CO)Nc1ccc(C(=O)Nc2cccc(S(=O)(=O)C3CCCC3)c2)c(N2CCC3(CC2)CC3)n1 [AM-0277]

remaining activity at 1 µM [1, 10]: 100%
remaining activity at 1 µM [2, 10]: 100%
remaining activity at 1 µM [3, 10]: 100%
remaining activity at 1 µM [4, 10]: 83%
remaining activity at 1 µM [5, 10]: 95%
remaining activity at 1 µM [6, 10]: 89%
remaining activity at 1 µM [7, 10]: 100%
remaining activity at 1 µM [8, 10]: 89%
Compound: CC(C)(C)NS(=O)(=O)c1cccc(NC(=O)c2ccc(S(=O)(=O)NC(C)(C)C)cc2N2CCC3(CC2)CC3)c1 [AM-1882]

remaining activity at 1 µM [1, 11]: 89.5%
remaining activity at 1 µM [2, 11]: 91.5%
remaining activity at 1 µM [3, 11]: 58.5%
remaining activity at 1 µM [4, 11]: 86.5%
remaining activity at 1 µM [5, 11]: 75%
remaining activity at 1 µM [6, 11]: 100%
remaining activity at 1 µM [7, 11]: 92%
remaining activity at 1 µM [8, 11]: 100%
Compound: C[C@@H]1CN(c2cccc(NC(=O)c3ccc(NS(=O)(=O)CCO)cc3N3CCC4(CC3)CC4)n2)CCO1 [AM-5308]
